# pIC50: −log10 of the molar value. Read-outs that look alike come from different tables or passages of the source.
# Assays:
# [1] = tested on: Gli-luciferase activity in TMHh12 cells; assay: Reporter gene assay (RGA) in TMHh12 cells, antagonism of Gli-luciferase activity in presence of Smo agonist; assay type: cell-based
# Protocol: Activity of the compounds was evaluated using a reporter gene assay (RGA) in TMHh12 cells.
# [2] = target: human Smoothened receptor (Homo sapiens, UniProt Q99835); assay: Smo binding assay, displacement of radio-labeled smoothened agonist, filter binding format (human); settings: read-out: Human Smo bdg., IC50
# Excerpt: (§1) A Smo binding assay was developed using radio-labeled smoothened agonist for compound competition. Table 10 lists the IC50 for displacement of a small molecule agonist of Smoothened determined in a filter binding format for the mouse and human Smoothened receptor.
# [3] = target: mouse Smoothened receptor (Mus musculus, UniProt P56726); assay: Smo binding assay, displacement of radio-labeled smoothened agonist, filter binding format (mouse); settings: read-out: Mouse Smo bdg., IC50
# Excerpt: as §1
# [4] = equilibrium solubility at pH 6.8; assay type: physicochemical; settings: aqueous buffer, thermodynamic from solid, examples of the present invention
# [5] = TMHh12, read-out: RGA (1 nM Smo agonist) IC50, 1 nM Smo agonist, examples of the present invention, exact values
# [6] = TMHh12, read-out: RGA (25 nM Smo agonist) IC50, 25 nM Smo agonist, examples of the present invention, exact values
# [7] = examples of the present invention, exact values
# [8] = read-out: RGA (1 nM Smo agonist) IC50, 1 nM Smo agonist, Table 10, values as ranges
# [9] = read-out: RGA (25 nM Smo agonist) IC50, 25 nM Smo agonist, Table 10, values as ranges
# Sequence of mouse Smoothened receptor (P56726 33-793): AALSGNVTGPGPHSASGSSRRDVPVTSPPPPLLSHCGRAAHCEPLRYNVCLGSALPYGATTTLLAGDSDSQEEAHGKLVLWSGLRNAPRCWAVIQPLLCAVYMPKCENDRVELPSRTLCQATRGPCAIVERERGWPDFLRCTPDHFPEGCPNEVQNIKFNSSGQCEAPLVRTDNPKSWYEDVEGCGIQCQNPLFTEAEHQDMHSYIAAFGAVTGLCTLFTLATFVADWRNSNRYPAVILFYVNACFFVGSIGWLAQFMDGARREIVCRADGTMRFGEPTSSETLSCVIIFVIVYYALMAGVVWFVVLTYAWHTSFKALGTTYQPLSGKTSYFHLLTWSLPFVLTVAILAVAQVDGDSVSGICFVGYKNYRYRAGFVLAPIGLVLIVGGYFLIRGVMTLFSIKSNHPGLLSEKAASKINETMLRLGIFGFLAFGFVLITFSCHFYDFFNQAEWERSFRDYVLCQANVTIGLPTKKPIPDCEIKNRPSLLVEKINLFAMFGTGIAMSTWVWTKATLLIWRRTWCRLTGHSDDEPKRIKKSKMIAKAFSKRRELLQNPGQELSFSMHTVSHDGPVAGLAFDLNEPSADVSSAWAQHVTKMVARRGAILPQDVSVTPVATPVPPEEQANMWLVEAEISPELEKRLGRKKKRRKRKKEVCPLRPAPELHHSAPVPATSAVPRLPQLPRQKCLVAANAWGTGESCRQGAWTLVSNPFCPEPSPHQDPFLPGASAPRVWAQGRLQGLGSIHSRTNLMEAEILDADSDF
# Sequence of human Smoothened receptor (Q99835 28-787): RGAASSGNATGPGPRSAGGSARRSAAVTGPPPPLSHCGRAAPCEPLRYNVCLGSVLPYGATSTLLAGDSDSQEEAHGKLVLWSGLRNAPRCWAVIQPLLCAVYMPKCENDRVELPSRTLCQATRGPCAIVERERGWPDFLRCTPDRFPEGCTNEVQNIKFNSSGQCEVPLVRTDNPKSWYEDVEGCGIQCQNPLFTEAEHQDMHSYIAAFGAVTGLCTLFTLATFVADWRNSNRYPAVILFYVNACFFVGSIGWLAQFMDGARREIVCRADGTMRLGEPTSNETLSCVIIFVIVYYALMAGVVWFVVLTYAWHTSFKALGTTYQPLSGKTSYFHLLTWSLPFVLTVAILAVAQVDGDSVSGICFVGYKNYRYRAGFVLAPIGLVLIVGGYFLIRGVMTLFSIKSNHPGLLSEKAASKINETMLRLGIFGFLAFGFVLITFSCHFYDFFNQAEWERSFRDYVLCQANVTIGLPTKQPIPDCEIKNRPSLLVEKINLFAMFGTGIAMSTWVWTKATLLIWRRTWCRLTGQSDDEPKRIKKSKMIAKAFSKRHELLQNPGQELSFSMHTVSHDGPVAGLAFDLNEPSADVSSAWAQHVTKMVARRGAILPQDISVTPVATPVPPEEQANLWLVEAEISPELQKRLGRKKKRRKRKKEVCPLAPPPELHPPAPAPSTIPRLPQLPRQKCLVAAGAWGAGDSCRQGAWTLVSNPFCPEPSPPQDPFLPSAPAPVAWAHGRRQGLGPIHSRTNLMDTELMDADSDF
Compound,"pIC50 [1, 5]","pIC50 [1, 6]","pIC50 [2, 7]","pIC50 [3, 7]",solubility thermodynamic [4] [µM],"pIC50 [1, 8]","pIC50 [1, 9]","pIC50 ([2]; Table 10, values as ranges)","pIC50 ([3]; Table 10, values as ranges)"
C[C@@H]1CN(c2nnc(Cc3ccc(F)cc3)c3c2CCC3)CCN1c1ncc(C(C)(C)O)c(C(F)(F)F)n1 [Example 99],8.30,7.14,8.70,8.52,,,,,
C[C@@H]1CN(c2nnc(Cc3ccccc3)c3c2CCC3)CCN1c1cc(C(F)(F)F)c(C(C)(C)O)cn1 [Example 107],8.70,7.64,8.52,8.52,,,,,
Cc1c(Cc2ccc(F)cc2)nnc(N2CCN(c3ncc(C(C)(C)O)c(C(F)(F)F)n3)[C@H](C)C2)c1C [Example 97],8.52,7.46,8.70,8.70,,,,,
CC(=O)c1cnc(N2CCN(c3nnc(Cc4ccccc4)c4c3CCC4)C[C@H]2C)cc1C(F)(F)F [Example 108],8.40,7.48,,,,,,,
C[C@@H]1CN(c2nnc(Cc3ccccc3)c3c2CCC3)CCN1c1ncc(C(C)(C)O)c(C(F)(F)F)n1 [Example 98],7.96,7.16,8.22,8.22,,,,,
"Cc1c(Cc2ccccc2)nnc(N2CCN(c3cnc(C(C)(C)O)cn3)[C@H](C)C2)c1C [Example 88, 2-[(R)-4-(6-Benzyl-4,5-dimethyl-pyridazin-3-yl)-2-methyl-3,4,5,6-tetrahydro-2H-[1,2′]bipyrazinyl-5′-yl]-propan-2-ol]",9.00,7.85,8.05,8.52,44,,,,
"Cc1c(Cc2ccccc2)nnc(N2CCN(c3cnc(C(C)(O)CO)cn3)[C@H](C)C2)c1C (stereo partly drawn) [Example 144, 2-[(R)-4-(6-Benzyl-4,5-dimethyl-pyridazin-3-yl)-2-methyl-3,4,5,6-tetrahydro-2H-[1,2]bipyrazinyl-5′-yl]-propane-1,2-diol]",8.30,7.08,7.62,7.72,270,,,,
"CC(=O)c1cnc(N2CCN(c3nnc(Cc4ccccc4)c(C)c3C)C[C@H]2C)cn1 [Example 95, 1-[(R)-4-(6-Benzyl-4,5-dimethyl-pyridazin-3-yl)-2-methyl-3,4,5,6-tetrahydro-2H-[1,2]bipyrazinyl-5′-yl]-ethanone]",8.10,6.96,8.10,8.05,,,,,
Cc1c(Cc2ccc(F)cc2)nnc(N2CCN(c3ccc(C(C)(C)O)cn3)CC2)c1C [Example 106],8.30,7.12,8.15,8.30,,,,,
Cc1c(C(O)c2ccccc2)nnc(N2CCN(c3cnc(C(C)(C)O)cn3)[C@H](C)C2)c1C (stereo partly shown) [Example 48],8.70,7.60,8.30,8.10,425,,,,
C[C@@H]1CN(c2nnc(Cc3ccccc3)c3c2CCC3)CCN1c1cnc(C(C)(C)O)cn1 [Example 93],9.00,7.85,9.00,8.52,20,,,,
"4,5-Dimethyl-3-(1-methyl-1H-tetrazol-5-ylmethyl)-6-[4-(5-trifluoromethyl-pyridin-2-yl)-piperazin-1-yl]-pyridazine & 4,5-Dimethyl-3-(2H-methyl-2H-tetrazol-5-ylmethyl)-6-[4-(5-trifluoromethyl-pyridin-2-yl)-piperazin-1-yl]-pyridazine [160/161]",,,,,,8.00 to 9.00,7.60 to 9.00,8.00 to 9.00,8.00 to 9.00
Cc1c(Cc2ccccc2)nnc(N2CCN(c3cnc(C(C)(C)O)cn3)CC2)c1C [Example 89],8.70,7.22,7.96,7.82,11,,,,
Cc1c(Cc2ccccc2)nnc(N2CCN(c3ncc(C(C)(C)O)c(C(F)(F)F)n3)[C@H](C)C2)c1C [Example 96],8.22,7.21,8.52,8.40,,,,,
CC(C)(O)c1ccc(N2CCN(c3nnc(Cc4ccc(F)cc4)c4c3CCCC4)CC2)nc1 [Example 104],8.30,7.15,7.85,8.05,,,,,
CC(C)(O)c1ccc(N2CCN(c3nnc(Cc4ccc(F)cc4)c4c3CCC4)CC2)nc1 [Example 105],8.52,7.46,8.15,8.22,,,,,
CCC(O)(CC)c1cnc(N2CCN(c3nnc(Cc4ccccc4)c(C)c3C)C[C@H]2C)cn1 [Example 111],9.00,7.74,9.00,8.70,,,,,
COC(=O)c1cnc(N2CCN(c3nnc(-c4ccc(F)c(Cl)c4)c(C)c3C)CC2)nc1C(F)(F)F [Example 20],,,,,,> 10.00,9.00 to 10.00,> 10.00,> 10.00
"Cc1c(Cc2ccccn2)nnc(N2CCN(c3cnc(C(C)(C)O)cn3)[C@H](C)C2)c1C [Example 54, 2-[(R)-4-(4,5-Dimethyl-6-pyridin-2-ylmethyl-pyridazin-3-yl)-2-methyl-3,4,5,6-tetrahydro-2H-[1,2′]bipyrazinyl-5′-yl]-propan-2-ol]",8.15,7.08,7.66,7.52,619,,,,
C[C@@H]1CN(c2nnc(Cc3ccc(F)cc3)c3c2CCC3)CCN1c1cc(C(F)(F)F)c(C(C)(C)O)cn1 [Example 109],8.52,7.42,8.70,8.70,,,,,
Cc1c(Cc2ccccc2)nnc(N2CCN(c3cnc(C(C)(C)O)cn3)[C@@H](C)C2)c1C [Example 90],9.00,7.47,8.22,8.15,18,,,,
"Cc1c(Oc2ccccc2)nnc(N2CCN(c3cnc(C(C)(C)O)cn3)[C@H](C)C2)c1C [Example 2, 2-[(R)-4-(4,5-Dimethyl-6-phenoxy-pyridazin-3-yl)-2-methyl-3,4,5,6-tetra-hydro-2H-[1,2′]bipyrazinyl-5′-yl]-propan-2-ol]",8.70,7.64,8.40,8.10,,,,,
"Cc1c(Cc2ccncc2)nnc(N2CCN(c3cnc(C(C)(C)O)cn3)[C@H](C)C2)c1C [Example 50, 2-[(R)-4-(4,5-Dimethyl-6-pyridin-4-ylmethyl-pyridazin-3-yl)-2-methyl-3,4,5,6-tetrahydro-2H-[1,2′]bipyrazinyl-5′-yl]-propan-2-ol]",8.22,6.94,7.54,7.49,> 1000,,,,
CC[C@@H]1CN(c2nnc(Cc3ccccc3)c(C)c2C)CCN1c1cnc(C(C)(C)O)cn1 [Example 91],8.30,7.24,8.10,8.10,,,,,
"Cc1c(Cc2ccccc2)nnc(N2CCC(C)(c3nc4cnccc4[nH]3)CC2)c1C [Example 59, 2-[1-(6-Benzyl-4,5-dimethyl-pyridazin-3-yl)-4-methyl-piperidin-4-yl]-1H-imidazo[4,5-c]pyridine]",,,,,,8.00 to 9.00,7.60 to 9.00,8.00 to 9.00,7.60 to 9.00
